In patent publication US12583815B2, “Inhibitors of YAP/TAZ-TEAD oncoproteins, synthesis and use thereof” (BRIDGENE BIOSCIENCES, INC., priority 2020, dated 2026):

Target: T1, TEAD1 (Homo sapiens, UniProt P28347)
T1 construct: endogenous in cells; host or cells: MCF-7
Test: TEAD1-Luciferase reporter assay (MCF-7 cell-based TEAD1-Luc assay)
Details: cells treated with compound overnight, luciferase chemiluminescence readout
Description: TEAD1-Luciferase Reporter Assay to Characterize the Pharmacological Properties of the Tead1 Covalent Inhibitors
FIG. 1 is a schematic illustration of the mechanism of TEAD1 inhibition by the disclosed compounds, which is the theoretical basis for the development of a TEAD-YAP/TAZ cell-based functional assay to characterize the pharmacological properties of the synthesized inhibitor compounds. The MCF-7 cell-based TEAD1-Luc assay for the IC50 measurement was performed as below. Compounds 2, 4, 5, and 7, representing different chemical scaffolds, were characterized. About 200 μL of culture medium was placed in each of the 10^4 cell/well in a 96-well plate. The next day the cells were treated with the synthesized compounds for overnight. The luciferase activity was measured with a chemiluminescent assay kit. Specifically, the plate was equilibrated at room temperature. […] and 50 μL of the medium was left inside. To each well was added 50 μL Luciferase reagents. The plates were gently rocked for more than about 15 minutes at room temperature. The luminescence signal was then read and recorded. Table 2 below summarizes the measured IC50 values for the disclosed compounds.

T1 sequence (P28347 whole entry): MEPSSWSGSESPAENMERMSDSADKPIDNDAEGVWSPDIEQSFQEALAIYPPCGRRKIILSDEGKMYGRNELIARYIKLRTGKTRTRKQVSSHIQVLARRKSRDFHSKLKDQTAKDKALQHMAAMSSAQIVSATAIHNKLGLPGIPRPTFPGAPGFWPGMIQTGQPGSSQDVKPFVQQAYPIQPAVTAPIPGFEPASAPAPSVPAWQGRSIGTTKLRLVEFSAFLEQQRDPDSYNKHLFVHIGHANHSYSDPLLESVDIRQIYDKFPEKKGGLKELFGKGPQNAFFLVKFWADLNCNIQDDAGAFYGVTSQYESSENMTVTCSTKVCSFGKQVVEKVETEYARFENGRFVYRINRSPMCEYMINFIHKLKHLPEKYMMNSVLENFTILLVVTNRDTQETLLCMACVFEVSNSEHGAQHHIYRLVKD

SMILES	IC50 [nM]
C=CC(=O)N[C@H]1CC[C@H](Oc2cccc(C(F)(F)F)c2)C1 [Compound 44, N-((1S,3S)-3-(3-(trifluoromethyl)phenoxy)cyclopentyl)acrylamide]	100 to 5000
C=CC(=O)N[C@@H]1CC[C@@H](Oc2cccc(C(F)(F)F)c2)C1 [Compound 43, N-((1R,3R)-3-(3-(trifluoromethyl)phenoxy)cyclopentyl)acrylamide]	100 to 5000
C=CC(=O)Nc1ccc2c(c1)CCN(CCCCC)C2=O [Compound 50, N-(1-oxo-2-pentyl-1,2,3,4-tetrahydroisoquinolin-6-yl)acrylamide]	100 to 5000
C=CC(=O)N1CC(NCc2cccc(C(F)(F)F)c2)C1 [Compound 60, 1-(3-((3-(trifluoromethyl)benzyl)amino)azetidin-1-yl)prop-2-en-1-one]	100 to 5000
C=CC(=O)Nc1ccc2cc(OCCCC)ccc2c1 [Compound 17, N-(6-butoxynaphthalen-2-yl)prop-2-enamide]	≤ 100
C=CC(=O)Nc1ccc2c(c1)CCC/C2=N\OCCCCC [Compound 6]	≥ 5000

Second part, the compound after the results:

IC50 [nM]	SMILES
≤ 100	C=CC(=O)Nc1cccc(Oc2csc(C(F)(F)F)c2)c1 [Compound 10, N-(3-((5-(trifluoromethyl)thiophen-3-yl)oxy)phenyl)acrylamide]
≤ 100	C=CC(=O)Nc1ccc2c(OCCCCC)nccc2c1 [Compound 19, N-(1-(pentyloxy)isoquinolin-6-yl)acrylamide]
≤ 100	C=CC(=O)Nc1ccc2c(c1)OCC/C2=N\OCCCCC [Compound 16, (E)-N-(4-((pentyloxy)imino)chroman-7-yl)acrylamide]
≤ 100	C=CC(=O)Nc1ccc2c(c1)CCC/C2=N\OCC [Compound 47, (E)-N-(5-(ethoxyimino)-5,6,7,8-tetrahydronaphthalen-2-yl)acrylamide]
≤ 100	C=CC(=O)NC1CC(OCc2cccc(C(F)(F)F)c2)C1 (stereo not shown) [Compound 61, N-(3-((3-(trifluoromethyl)benzyl)oxy)cyclobutyl)acrylamide]
≤ 100	C=CC(=O)Nc1cccc(Oc2cccc(C(F)(F)F)c2)c1 [Compound 4]
≤ 100	C=CC(=O)NC1CC2(CC(NCc3cccc(C(F)(F)F)c3)C2)C1 (stereo not shown) [Compound 63, N-(6-((3-(trifluoromethyl)benzyl)amino)spiro[3.3]heptan-2-yl)acrylamide]
